Drawing on PubChem BioAssay (NCI), this text covers TGI and GI50 for 13 compounds.

Some test systems named below: A498 renal; HCT-15 colon; HL-60(TB) leukemia; HOP-62 NSCLC; OVCAR-5 ovarian; SF-268 CNS; SF-539 CNS; SK-OV-3 ovarian; SN12C renal; HOP-92 NSCLC.
Common to all, as to assay: growth of human tumour cells (NCI), 48 h

The structures appear in SMILES notation.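 Five compound concentrations were applied to cells in 96-well plates for 48 hours; endpoints were derived by simple linear interpolation of the resulting dose-response curve. Here, GI50 denotes the concentration required for 50% inhibition of growth. At the TGI there is no net growth.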

On to `FC(F)(F)c1ccccc1C=NC12CC3CC(CC(C3)C1)C2`, for which the TGI with A498 renal, in the assay with HCT-15 colon, in the assay on HL-60(TB) leukemia, in the assay on HOP-62 NSCLC, with OVCAR-5 ovarian and with SF-268 CNS was over 100 µM each time. Besides, the TGI in the assay with SF-539 CNS, in the assay on SK-OV-3 ovarian and with SN12C renal was over 100 µM in each case.

With `O=C1CC23CC(=O)CC2(C1)c1ccccc1C3=O` (stereo not drawn), the TGI with HL-60(TB) leukemia, in the assay on HOP-62 NSCLC, with OVCAR-5 ovarian, in the assay with SF-268 CNS, in the assay with SF-539 CNS and with SK-OV-3 ovarian was over 100 µM in each case. Further, in the assay on SN12C renal, the TGI was over 100 µM.

`Cc1cc2c(=O)cc(-c3ccc(C(=O)O)cc3)oc2c(C(=O)O)c1C`: the TGI in the assay on HCT-15 colon, in the assay with HL-60(TB) leukemia, in the assay on HOP-62 NSCLC, in the assay on HOP-92 NSCLC, with OVCAR-5 ovarian and in the assay with SF-539 CNS was over 100 µM in each case. Also, the TGI with SK-OV-3 ovarian and in the assay on SN12C renal was over 100 µM in each case.

Take `COC(=O)CCC(=O)C(C#N)c1ccc(Cl)cc1Cl` (stereo not drawn): the TGI with HCT-15 colon, in the assay on HL-60(TB) leukemia, in the assay on HOP-92 NSCLC, in the assay on SF-268 CNS, in the assay with SF-539 CNS and with SK-OV-3 ovarian was over 100 µM in each case. In the assay on SN12C renal, this compound yielded a TGI of over 100 µM.

`Cn1c(-c2ccccc2)c/c(=N\NS(C)(=O)=O)c2cc(S(=O)(=O)O)ccc21`: the TGI in the assay with HCT-15 colon, in the assay on HL-60(TB) leukemia, with HOP-62 NSCLC, with HOP-92 NSCLC, in the assay with OVCAR-5 ovarian and with SF-268 CNS was over 100 µM in each case. For the same compound, the TGI in the assay on SF-539 CNS, with SK-OV-3 ovarian and in the assay on SN12C renal was over 100 µM throughout.

For the compound `O=C(CN/C=C\C(=O)c1cc(Cl)ccc1Cl)c1ccccc1`, the GI50 in the assay with A498 renal was 23.2 µM; in the assay on HCT-15 colon, 18.3 µM; in the assay with HL-60(TB) leukemia, 73.4 µM; with HOP-62 NSCLC it was 34.5 µM; in the assay on OVCAR-5 ovarian, 30.6 µM; in the assay with SF-268 CNS, 24.8 µM. Further, the GI50 in the assay with SF-539 CNS was 20.4 µM; with SK-OV-3 ovarian, 47.1 µM; in the assay with SN12C renal it was 25.9 µM. Further, the TGI in the assay on A498 renal is 90.5 µM; in the assay with HCT-15 colon, 37.6 µM; with HL-60(TB) leukemia it was over 100 µM; with HOP-62 NSCLC, over 100 µM; in the assay with OVCAR-5 ovarian, over 100 µM; with SF-268 CNS, 83.4 µM. For the same compound, the TGI is 38.8 µM in the assay on SF-539 CNS, over 100 µM in the assay with SK-OV-3 ovarian and 57.1 µM in the assay with SN12C renal.

On to `OCCCNC(=S)Nc1ccc(-c2nc3ccccc3s2)cc1`, for which the GI50 is 16.7 µM in the assay on HCT-15 colon; 25.5 µM in the assay with HL-60(TB) leukemia; 31.8 µM in the assay on HOP-62 NSCLC; 19.7 µM in the assay with HOP-92 NSCLC; 20.6 µM with OVCAR-5 ovarian; 22.5 µM with SF-268 CNS. The GI50 in the assay on SF-539 CNS is 29.8 µM; in the assay with SK-OV-3 ovarian, 63.7 µM; with SN12C renal, 22.8 µM. The TGI was 39.8 µM in the assay on HCT-15 colon; over 100 µM in the assay with HL-60(TB) leukemia; over 100 µM in the assay with HOP-62 NSCLC; 82.9 µM in the assay with HOP-92 NSCLC; 58.3 µM in the assay on OVCAR-5 ovarian; over 100 µM with SF-268 CNS. Besides, the TGI was 95.4 µM in the assay with SF-539 CNS, over 100 µM in the assay on SK-OV-3 ovarian and 54.8 µM with SN12C renal.

Turning to `COc1ccc(OC)c2c3c(ncc12)-c1cc2c(cc1C3)OCO2`, the GI50 is 3.87 µM in the assay with HCT-15 colon; 24.8 µM in the assay with HL-60(TB) leukemia; over 100 µM in the assay on HOP-92 NSCLC; over 100 µM with OVCAR-5 ovarian; over 100 µM in the assay with SK-OV-3 ovarian; over 100 µM in the assay on SN12C renal. Moreover, the TGI in the assay on HCT-15 colon is over 100 µM; in the assay with HL-60(TB) leukemia, over 100 µM; with HOP-62 NSCLC it was 0.0603 µM; with HOP-92 NSCLC, over 100 µM; in the assay with OVCAR-5 ovarian it was over 100 µM; with SK-OV-3 ovarian, over 100 µM. This compound also registered a TGI with SN12C renal of over 100 µM.

Regarding `O=S(=O)(c1ccccc1)C1CN(Cc2ccccc2)CCN(Cc2ccccc2)C1`, the TGI was over 100 µM in the assay with A498 renal; over 100 µM in the assay on HCT-15 colon; 34.4 µM in the assay on HL-60(TB) leukemia; over 100 µM in the assay with HOP-62 NSCLC; over 100 µM in the assay on OVCAR-5 ovarian; 97.7 µM in the assay on SF-268 CNS. Moreover, the TGI in the assay on SF-539 CNS, in the assay on SK-OV-3 ovarian and in the assay on SN12C renal was over 100 µM each time.

Consider `COC(=O)C1CCc2nnc(-c3cccnc3)n21` (stereo not drawn), for which the TGI with A498 renal, in the assay on HCT-15 colon, in the assay with HL-60(TB) leukemia, with HOP-62 NSCLC, in the assay with SF-268 CNS and in the assay with SF-539 CNS was over 100 µM in each case. In addition, the TGI in the assay with SK-OV-3 ovarian and in the assay with SN12C renal was over 100 µM each time.

As to `O=C(/C=C/c1ccc2c(c1)OCO2)c1ccccc(=O)c1O`, the TGI in the assay on A498 renal was over 100 µM; in the assay with HCT-15 colon it was over 100 µM; with HOP-62 NSCLC, over 100 µM; in the assay with HOP-92 NSCLC it was 72.9 µM; in the assay with SF-268 CNS, 35.9 µM; in the assay with SN12C renal, over 100 µM.

On to `O=c1nc2[nH]nc(-c3ccccc3)c2n[nH]1`, for which the TGI with A498 renal, in the assay on HCT-15 colon, in the assay on HL-60(TB) leukemia, in the assay on HOP-62 NSCLC, in the assay with OVCAR-5 ovarian and in the assay on SF-268 CNS was over 100 µM in each case. Also, the TGI in the assay on SF-539 CNS was 36.4 µM; in the assay with SN12C renal, over 100 µM.

Regarding `CC(C)(C)C1CCN(C(=O)c2ccccc2)CC1`, the TGI in the assay with A498 renal, in the assay on HCT-15 colon, with HL-60(TB) leukemia, with HOP-62 NSCLC, with OVCAR-5 ovarian and in the assay with SF-539 CNS was over 100 µM each time. Besides, the TGI in the assay with SK-OV-3 ovarian and with SN12C renal was over 100 µM throughout.
